Measured values from patent US8841312B2, “Fused pyridine, pyrimidine and triazine compounds as cell cycle inhibitors” (Amgen Inc., priority 2007, dated 2014).

Legend:
Cdk4/CyclinD1 = Cdk4/CyclinD1 (Homo sapiens (Human), UniProt P11802); assay: Cdk4 kinase inhibition assay with recombinant Cdk4/CyclinD1, Rb substrate, [33P]-ATP filter plate; assay type: biochemical; conditions: 25 μM ATP, read-out: Cdk 4 IC50
How it was run: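 Recombinant Cdk4/CyclinD1 or Cdk6/CyclinD3 phosphorylated Rb protein with [33P]-ATP for 1 h at room temperature. Protein was TCA-precipitated on filter plates and bound radioactivity counted. IC50 by nonlinear regression.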

Cdk6/CyclinD3 = Cdk6/CyclinD3 (Homo sapiens (Human), UniProt Q00534); assay: Cdk6 kinase inhibition assay with recombinant Cdk6/CyclinD3, Rb substrate, [33P]-ATP filter plate; assay type: biochemical; conditions: 25 μM ATP, read-out: Cdk 6 IC50
Chain of Cdk6/CyclinD3 (Q00534 whole entry): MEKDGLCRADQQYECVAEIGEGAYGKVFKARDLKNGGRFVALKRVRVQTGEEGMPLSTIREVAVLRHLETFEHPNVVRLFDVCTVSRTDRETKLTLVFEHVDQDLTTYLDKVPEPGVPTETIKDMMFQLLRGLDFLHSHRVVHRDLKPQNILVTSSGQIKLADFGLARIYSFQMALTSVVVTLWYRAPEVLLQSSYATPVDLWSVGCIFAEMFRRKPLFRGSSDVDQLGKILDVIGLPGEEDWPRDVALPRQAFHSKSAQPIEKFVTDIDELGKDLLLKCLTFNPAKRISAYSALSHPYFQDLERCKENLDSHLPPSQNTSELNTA
Chain of Cdk6/CyclinD3 (P30281 whole entry partner): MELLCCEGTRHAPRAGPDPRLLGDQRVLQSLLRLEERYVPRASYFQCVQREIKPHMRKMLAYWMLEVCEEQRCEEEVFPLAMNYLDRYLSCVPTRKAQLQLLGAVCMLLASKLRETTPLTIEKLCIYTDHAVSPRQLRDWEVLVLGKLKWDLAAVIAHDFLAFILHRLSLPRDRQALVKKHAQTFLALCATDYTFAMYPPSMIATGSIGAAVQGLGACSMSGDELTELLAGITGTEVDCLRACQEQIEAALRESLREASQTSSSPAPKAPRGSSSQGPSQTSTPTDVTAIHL
Method: The Cdk4 and Cdk6 inhibitory activity of the compounds is measured with a kinase inhibition assay using recombinant Cdk4/CyclinD1 or Cdk6/CyclinD3 protein complexes. The protein substrate used in the assay is the retinoblastoma protein (Rb). The kinase reactions are carried out in a 96-well filter plate (MSDV N6B50, Millipore). […] The mixture is incubated at room temperature for 1 hour and the proteins precipitated with an equal volume of 20% TCA. The plates are washed with 10% TCA according to the manufacturer's instruction and dried at room temperature. The amount of the phosphorylated Rb is determined with a TopCount (PerkinElmer). The IC50 of a compound is determined by nonlinear regression curve fitting using software program Prism 5 (GraphPad Software).

Chain of Cdk4/CyclinD1 (P11802 whole entry): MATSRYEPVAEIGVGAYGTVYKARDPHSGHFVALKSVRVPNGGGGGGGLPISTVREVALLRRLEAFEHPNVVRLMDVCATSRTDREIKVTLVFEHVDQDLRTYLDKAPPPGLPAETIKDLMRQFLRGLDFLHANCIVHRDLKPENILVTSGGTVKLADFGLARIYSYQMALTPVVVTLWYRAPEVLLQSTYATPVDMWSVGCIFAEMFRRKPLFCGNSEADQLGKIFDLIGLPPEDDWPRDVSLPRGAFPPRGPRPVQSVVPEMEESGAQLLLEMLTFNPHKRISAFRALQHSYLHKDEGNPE
Chain of Cdk4/CyclinD1 (P24385 whole entry partner): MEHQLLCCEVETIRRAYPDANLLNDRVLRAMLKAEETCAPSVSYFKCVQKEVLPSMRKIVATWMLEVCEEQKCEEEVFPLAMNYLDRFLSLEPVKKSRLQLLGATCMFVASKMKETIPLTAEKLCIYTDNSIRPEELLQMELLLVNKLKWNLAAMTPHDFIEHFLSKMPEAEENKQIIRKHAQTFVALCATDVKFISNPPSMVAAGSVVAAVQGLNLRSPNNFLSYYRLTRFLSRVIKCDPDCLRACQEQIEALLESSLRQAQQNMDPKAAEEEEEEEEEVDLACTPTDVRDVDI

Row | SMILES | IC50 (Cdk4/CyclinD1) [nM] | IC50 (Cdk6/CyclinD3) [nM]
1 | Fc1nccc2c3cnc(Nc4ccc(N5CCNCC5)cn4)nc3n(C3CCCC3)c12 [Example 57, 9-Cyclopentyl-8-fluoro-N-(5-(1-piperazinyl)-2-pyridinyl)-9H-pyrido[4′,3′:4,5]pyrrolo[2,3-d]pyrimidin-2-amine] | 2 | 17
2 | c1ccc(-n2c3cnccc3c3cnc(Nc4ccc(N5CCNCC5)cn4)nc32)cc1 [Example 14, 9-Phenyl-N-(5-(1-piperazinyl)-2-pyridinyl)-9H-pyrido[4′,3′:4,5]pyrrolo[2,3-d]pyrimidin-2-amine] | 2.2 | 8
3 | N[C@H]1CCN(c2ccc(Nc3ncc4c5ccncc5n(C5CCCC5)c4n3)nn2)C1 [Example 108] | 12 | 15.7
4 | c1cc(-c2ccc(Nc3ncc4c5ccncc5n(C5CCCC5)c4n3)nn2)ccn1 [Example 259, 9-cyclopentyl-N-(6-(4-pyridinyl)-3-pyridazinyl)-9H-pyrido[4′,3′:4,5]pyrrolo[2,3-d]pyrimidin-2-amine] | 49 | 101
5 | C[C@@H](CO)NC1CCN(c2ccc(Nc3ncc4c5ccncc5n(C5CCCC5)c4n3)nc2)CC1 [Example 475] | 2.6 | 8
6 | CN1CCN(c2ccc(Nc3ncc4c5ccncc5n(C5CCCC5)c4n3)nc2)CC1 [Example 2, 9-Cyclopentyl-N-(5-(1-(N^4-methylpiperazinyl))-2-pyridinyl)-9H-pyrido-[4′,3′:4,5]pyrrolo[2,3-d]pyrimidin-2-amine] | 13 | 10
7 | c1cc2c3cnc(Nc4ccc(N5CCC(N6CCOCC6)CC5)nn4)nc3n(C3CCCC3)c2cn1 [Example 447] | 2.8 | 26
8 | O=C1CN(Cc2ccc(Nc3ncc4c5ccncc5n(C5CCCC5)c4n3)nc2)CCN1 [Example 225, 4-((6-((9-cyclopentyl-9H-pyrido[4′,3′:4,5]pyrrolo[2,3-d]pyrimidin-2-yl)amino)-3-pyridinyl)methyl)-2-piperazinone] | 4 | 3
9 | C[C@@H](O)Cn1c2cnccc2c2cnc(Nc3ccc(N4CCNCC4)cn3)nc21 [Example 356] | 360 | 370
10 | C[C@@H](O)Cn1c2cnccc2c2cnc(Nc3ccc(N4CC[C@@H](O)C4)cn3)nc21 [Example 358] | 470 | 590
11 | COc1nccc2c3cnc(Nc4ccc(N5CCNCC5)cn4)nc3n(C3CCCC3)c12 [Example 52, 9-cyclopentyl-8-(methyloxy)-N-(5-(1-piperazinyl)-2-pyridinyl)-9H-pyrido[4′,3′:4,5]-pyrrolo[2,3-d]pyrimidin-2-amine] | 12 | 22
12 | O[C@@H]1CCCN(c2ccc(Nc3ncc4c5ccncc5n(C5CCCC5)c4n3)nn2)C1 [Example 104] | 3.3 | 14
13 | C[C@@H](C1CCCCC1)n1c2cnccc2c2cnc(Nc3ccc(N4CCNCC4)cn3)nc21 [Example 29] | 3.9 | 5.7
14 | c1ccc2c(c1)c1cnc(Nc3ccc(N4CCNCC4)cc3)nc1n2C1CCCCC1 [Example 21, (9-Cyclohexyl-9H-pyrimido[4,5-b]indol-2-yl)-(4-piperazin-1-yl-phenyl)-amine] | 1 | 0.41
15 | COc1cc(-c2ccc(Nc3ncc4c5ccncc5n(C5CCCC5)c4n3)nn2)ccn1 [Example 262, 9-Cyclopentyl-N-(6-(2-methoxy-4-pyridinyl)-3-pyridazinyl)-9H-pyrido[4′,3′:4,5]pyrrolo[2,3-d]pyrimidin-2-amine] | 32 | 38
16 | c1cc2c3cnc(Nc4ccc(N5CCNCC5)cn4)cc3n(Cc3ccsc3)c2cn1 [Example 235, N-(5-(1-piperazinyl)-2-pyridinyl)-5-(3-thiophenylmethyl)-5H-pyrido[3′,4′:4,5]pyrrolo[2,3-c]pyridin-3-amine] | 125 | 257
17 | CN(CCO)C1CCN(c2ccc(Nc3ncc4c5ccncc5n(C5CCCC5)c4n3)nc2)CC1 [Example 457] | 19 | 37
18 | Oc1ccc(-c2ccc(Nc3ncc4c5ccncc5n(C5CCCC5)c4n3)nn2)cn1 [Example 266, 5-(6-((9-Cyclopentyl-9H-pyrido[4′,3′:4,5]pyrrolo[2,3-d]pyrimidin-2-yl)amino)-3-pyridazinyl)-2-pyridinol] | 3.1 | 6.5
19 | CCC(C)(C)n1c2cnccc2c2cnc(Nc3ccc(N4CCNCC4)cn3)nc21 [Example 157, 9-(1,1-dimethylpropyl)-N-(5-(1-piperazinyl)-2-pyridinyl)-9H-pyrido-[4′,3′:4,5]pyrrolo[2,3-d]pyrimidin-2-amine] | 30 | 25
20 | CN(CCO)C1CCN(c2ccc(Nc3ncc4c5ccncc5n(C5CCCC5)c4n3)nn2)CC1 [Example 440] | 5.8 | 14
21 | OC1CN(C2CCN(c3ccc(Nc4ncc5c6ccncc6n(C6CCCC6)c5n4)nn3)CC2)C1 [Example 448] | 10 | 22

Row | SMILES | IC50 (Cdk4/CyclinD1) [nM] | IC50 (Cdk6/CyclinD3) [nM]
22 | c1cc2c3cnc(Nc4nc(CN5CCNCC5)cs4)nc3n(C3CCCC3)c2cn1 [Example 164, 9-Cyclopentyl-N-(4-(1-piperazinylmethyl)-1,3-thiazol-2-yl)-9H-pyrido-[4′,3′:4,5]pyrrolo[2,3-d]pyrimidin-2-amine] | 3.6 | 6.2
23 | Oc1cc(-c2ccc(Nc3ncc4c5ccncc5n(C5CCCC5)c4n3)nn2)ccn1 [Example 264, 4-(6-((9-cyclopentyl-9H-pyrido[4′,3′:4,5]pyrrolo[2,3-d]pyrimidin-2-yl)amino)-3-pyridazinyl)-2-pyridinol] | 9.3 | 16.6
24 | C1=CCN(c2ccc(Nc3ncc4c5ccncc5n(C5CCCC5)c4n3)nn2)CC1 [Example 254, 9-Cyclopentyl-N-(6-(3,6-dihydro-1(2 H)-pyridinyl)-3-pyridazinyl)-9H-pyrido[4′,3′:4,5]pyrrolo[2,3-d]pyrimidin-2-amine] | 22 | 40
25 | O=S1(=O)CCN(c2ccc(Nc3ncc4c5ccncc5n(C5CCCC5)c4n3)nc2)CC1 [Example 66] | 5.4 | 73
26 | CN(C)C1CCN(c2ccc(Nc3ncc4c5ccncc5n(C5CCC5)c4n3)nn2)CC1 [Example 347] | 27 | 27
27 | CNCCN(C)C1CCN(c2ccc(Nc3ncc4c5ccncc5n(C5CCCC5)c4n3)nn2)CC1 [Example 443] | 4.8 | 16
28 | CC1CCC(n2c3cnccc3c3cnc(Nc4ccc(N5CCNCC5)cn4)nc32)CC1 (stereo not drawn) [Example 55, 9-(4-methylcyclohexyl)-N-(5-(1-piperazinyl)-2-pyridinyl)-9H-pyrido[4′,3′:4,5]pyrrolo[2,3-d]pyrimidin-2-amine] | 1.2 | 4.4
29 | C[C@H]1CN(c2ccc(Nc3ncc4c5ccncc5n(CCCO)c4n3)nc2)CCN1 [Example 351] | 80 | 176
30 | C1=C(c2ccc(Nc3ncc4c5ccncc5n(C5CCCC5)c4n3)nc2)CCNC1 [Example 256, 9-Cyclopentyl-N-(1′,2′,3′,6′-tetrahydro-3,4′-bipyridin-6-yl)-9H-pyrido[4′,3′:4,5]pyrrolo[2,3-d]pyrimidin-2-amine] | 1.3 | 7
31 | Clc1nccc2c3cnc(Nc4ccc(N5CCNCC5)cn4)nc3n(C3CCCC3)c12 [Example 152, 8-Chloro-9-cyclopentyl-N-(5-(1-piperazinyl)-2-pyridinyl)-9H-pyrido[4′,3′:4,5]pyrrolo[2,3-d]pyrimidin-2-amine] | 2 | 4.3
32 | c1cc2c3cnc(Nc4ccc(NC5CCNCC5)nn4)nc3n(C3CCCC3)c2cn1 [Example 96] | 16.2 | 12.4
33 | NC1CCN(c2ccc(Nc3ncc4c5ccncc5n(C5CCCC5)c4n3)nc2)CC1 [Example 11] | 3.1 | 10
34 | N#Cc1nccc2c3cnc(Nc4ccc(N5CCNCC5)cn4)nc3n(C3CCCC3)c12 [Example 188, 9-Cyclopentyl-2-((5-(1-piperazinyl)-2-pyridinyl)amino)-9H-pyrido[4′,3′:4,5]pyrrolo[2,3-d]pyrimidine-8-carbonitrile] | 27 | 13.4
35 | CN(C)[C@@H]1CCN(c2ccc(Nc3ncc4c5ccncc5n(C5CCCC5)c4n3)nc2)C1 [Example 289] | 7.2 | 40
36 | OC[C@@H](O)CNC1CCN(c2ccc(Nc3ncc4c5ccncc5n(C5CCCC5)c4n3)nn2)CC1 [Example 481] | 8 | 12
37 | O[C@H]1CCN(c2ccc(Nc3ncc4c5ccccc5n(C5CCCC5)c4n3)nc2)C1 [Example 305] | 149 | 111
38 | CN1CCN(c2ccc(Nc3ncc4c5ccccc5n(C5CCCC5)c4n3)nc2)CC1 [Example 298] | 40 | 8
39 | C[C@H]1CN(c2ccc(Nc3ncc4c5ccncc5n(C5CCCC5)c4n3)nn2)CCN1 [Example 9] | 3.8 | 19.5
40 | CCCNC1CCN(c2ccc(Nc3ncc4c5ccncc5n(C5CCCC5)c4n3)nc2)CC1 [Example 466] | 4.7 | 14
41 | O=C(O)c1ccc(Nc2ncc3c4ccnc(O)c4n(C4CCCC4)c3n2)nc1 [Example 224, 6-((9-cyclopentyl-8-hydroxy-9H-pyrido[4′,3′:4,5]pyrrolo[2,3-d]pyrimidin-2-yl)amino)-3-pyridinecarboxylic acid] | 520 | 860
42 | C[C@@H](O)Cn1c2cnccc2c2cnc(Nc3ccc(N4CCC(N(C)C)CC4)cn3)nc21 [Example 357] | 294 | 314
